The source made the active and inactive calls.
Experiments:
[1] = biological target: T1, Calpain-2 catalytic subunit (Sus scrofa, UniProt P43367); experiment: pig calpain II inhibitor potency, dose response, biochemical, fluorogenic peptide substrate (AID 1420); type: functional
T1 sequence (P43367 whole entry): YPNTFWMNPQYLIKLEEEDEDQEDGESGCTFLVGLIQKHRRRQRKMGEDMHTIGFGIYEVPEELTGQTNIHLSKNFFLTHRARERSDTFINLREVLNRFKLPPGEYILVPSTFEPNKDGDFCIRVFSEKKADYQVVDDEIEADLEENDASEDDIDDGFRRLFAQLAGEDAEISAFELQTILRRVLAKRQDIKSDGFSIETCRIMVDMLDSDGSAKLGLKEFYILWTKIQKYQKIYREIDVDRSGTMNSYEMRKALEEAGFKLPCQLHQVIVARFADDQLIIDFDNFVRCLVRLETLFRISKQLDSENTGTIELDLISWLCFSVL

[2] = intracellular Trypanosoma cruzi inhibitors in host cells – cell-based, plate reader, cherry-pick samples, set 3, dose response (AID 651818); type: functional;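 also: compounds incubated with infected cells for about four days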
[3] = biological target: T2, Aminopeptidase N (Plasmodium falciparum FcB1/Columbia, UniProt O96935); experiment: P. falciparum M1AAP inhibitors, biochemical, fluorogenic H-Leu-NHMec substrate, 1536-well (AID 1445); design: species or system Plasmodium falciparum 3D7, 3D7
T2 sequence (O96935 whole entry): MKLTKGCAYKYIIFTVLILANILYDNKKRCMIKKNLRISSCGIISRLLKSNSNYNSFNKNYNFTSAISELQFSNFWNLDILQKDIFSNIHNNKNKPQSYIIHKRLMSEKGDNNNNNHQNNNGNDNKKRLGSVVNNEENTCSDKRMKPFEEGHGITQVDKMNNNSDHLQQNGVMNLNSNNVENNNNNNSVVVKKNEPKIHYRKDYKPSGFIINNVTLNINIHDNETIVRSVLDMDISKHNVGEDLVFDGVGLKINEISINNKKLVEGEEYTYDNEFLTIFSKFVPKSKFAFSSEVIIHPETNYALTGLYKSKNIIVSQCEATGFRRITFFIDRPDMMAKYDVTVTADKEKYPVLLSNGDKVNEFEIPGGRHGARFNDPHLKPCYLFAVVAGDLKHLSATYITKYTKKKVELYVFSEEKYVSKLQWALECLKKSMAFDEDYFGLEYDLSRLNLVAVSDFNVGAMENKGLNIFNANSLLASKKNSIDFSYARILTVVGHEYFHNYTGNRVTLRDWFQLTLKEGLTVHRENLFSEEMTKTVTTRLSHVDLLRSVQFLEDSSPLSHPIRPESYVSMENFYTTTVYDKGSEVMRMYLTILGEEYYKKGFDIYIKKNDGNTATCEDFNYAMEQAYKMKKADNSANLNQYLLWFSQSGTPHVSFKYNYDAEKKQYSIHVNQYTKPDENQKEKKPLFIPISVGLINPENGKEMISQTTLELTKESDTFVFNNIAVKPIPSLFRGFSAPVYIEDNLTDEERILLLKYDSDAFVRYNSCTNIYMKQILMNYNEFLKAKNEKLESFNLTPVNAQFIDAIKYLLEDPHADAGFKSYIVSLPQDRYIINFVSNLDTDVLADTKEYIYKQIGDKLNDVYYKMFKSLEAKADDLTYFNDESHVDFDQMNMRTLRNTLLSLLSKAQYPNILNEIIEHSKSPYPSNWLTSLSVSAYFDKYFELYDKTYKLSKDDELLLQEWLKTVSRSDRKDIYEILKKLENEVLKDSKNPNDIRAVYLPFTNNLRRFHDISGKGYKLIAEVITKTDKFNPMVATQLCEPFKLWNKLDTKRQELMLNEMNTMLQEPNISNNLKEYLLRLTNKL

[4] = biological target: Luciferin 4-monooxygenase (Photinus pyralis, UniProt P08659); experiment: firefly luciferase enzyme inhibitors, dose response, biochemical, luminescence (AID 1891)
[5] = Luminescence Cell-Based Dose Confirmation HTS to Identify Inhibitors of Platelet Dense Granule Release. [Related pubchem assays: 1663 (Primary HTS), 1678 (Summary of Project)]; type: functional
[6] = biological target: T3, Short transient receptor potential channel 4 (Mus musculus, UniProt Q9QUQ5); experiment: mouse TRPC4 channel activators, dose response, cell-based, HEK293 TRPC4/mu-opioid, Fluo-4 calcium (AID 434937); type: functional
T3 sequence (Q9QUQ5 whole entry): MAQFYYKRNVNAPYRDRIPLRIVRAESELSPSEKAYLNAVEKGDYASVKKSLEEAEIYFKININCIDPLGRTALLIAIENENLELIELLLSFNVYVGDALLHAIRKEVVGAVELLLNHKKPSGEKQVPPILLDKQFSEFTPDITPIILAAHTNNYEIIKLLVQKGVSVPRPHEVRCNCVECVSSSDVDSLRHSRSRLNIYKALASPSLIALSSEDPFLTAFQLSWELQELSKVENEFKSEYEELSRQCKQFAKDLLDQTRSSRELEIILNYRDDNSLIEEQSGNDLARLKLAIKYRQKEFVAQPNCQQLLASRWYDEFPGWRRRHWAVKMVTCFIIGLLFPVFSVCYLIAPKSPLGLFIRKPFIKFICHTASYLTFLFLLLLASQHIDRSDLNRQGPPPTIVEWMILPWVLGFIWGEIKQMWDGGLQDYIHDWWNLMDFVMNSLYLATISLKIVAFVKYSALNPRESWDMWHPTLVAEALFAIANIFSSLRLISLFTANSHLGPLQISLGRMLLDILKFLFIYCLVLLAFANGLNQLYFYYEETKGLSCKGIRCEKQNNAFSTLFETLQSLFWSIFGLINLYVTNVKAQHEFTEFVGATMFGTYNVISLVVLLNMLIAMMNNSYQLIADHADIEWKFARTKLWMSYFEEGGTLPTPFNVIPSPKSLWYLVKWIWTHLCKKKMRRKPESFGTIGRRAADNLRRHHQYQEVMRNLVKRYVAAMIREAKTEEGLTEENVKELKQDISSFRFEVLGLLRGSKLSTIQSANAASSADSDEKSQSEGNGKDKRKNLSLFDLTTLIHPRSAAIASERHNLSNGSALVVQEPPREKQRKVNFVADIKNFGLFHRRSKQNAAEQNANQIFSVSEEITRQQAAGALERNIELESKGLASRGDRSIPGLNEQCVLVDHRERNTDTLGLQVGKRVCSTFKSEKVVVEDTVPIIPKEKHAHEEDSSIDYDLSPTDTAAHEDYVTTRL

[7] = biological target: T4, RNA-binding protein pos-1 (Caenorhabditis elegans, UniProt G5EF15); experiment: inhibitors of POS-1/mex-3 RNA binding, dose response, biochemical, fluorescence polarization (AID 1964);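 also: purified POS-1 fused to maltose binding protein made in E. coli; potency of compounds blocking POS-1 binding to fluorescent RNA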
T4 sequence (G5EF15 whole entry): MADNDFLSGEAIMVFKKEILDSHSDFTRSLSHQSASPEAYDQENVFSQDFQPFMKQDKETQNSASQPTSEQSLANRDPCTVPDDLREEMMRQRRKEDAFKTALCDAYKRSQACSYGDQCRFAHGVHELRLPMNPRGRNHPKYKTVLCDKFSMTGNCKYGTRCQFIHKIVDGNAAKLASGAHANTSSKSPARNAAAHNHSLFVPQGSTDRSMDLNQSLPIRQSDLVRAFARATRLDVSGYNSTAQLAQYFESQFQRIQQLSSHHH

[8] = biological target: T5, Zinc finger protein mex-5 (Caenorhabditis elegans, UniProt Q9XUB2); experiment: MEX-5/TCR-2 RNA interaction inhibitors, dose response, biochemical, C. elegans, fluorescence polarization (AID 1960)
T5 sequence (Q9XUB2 whole entry): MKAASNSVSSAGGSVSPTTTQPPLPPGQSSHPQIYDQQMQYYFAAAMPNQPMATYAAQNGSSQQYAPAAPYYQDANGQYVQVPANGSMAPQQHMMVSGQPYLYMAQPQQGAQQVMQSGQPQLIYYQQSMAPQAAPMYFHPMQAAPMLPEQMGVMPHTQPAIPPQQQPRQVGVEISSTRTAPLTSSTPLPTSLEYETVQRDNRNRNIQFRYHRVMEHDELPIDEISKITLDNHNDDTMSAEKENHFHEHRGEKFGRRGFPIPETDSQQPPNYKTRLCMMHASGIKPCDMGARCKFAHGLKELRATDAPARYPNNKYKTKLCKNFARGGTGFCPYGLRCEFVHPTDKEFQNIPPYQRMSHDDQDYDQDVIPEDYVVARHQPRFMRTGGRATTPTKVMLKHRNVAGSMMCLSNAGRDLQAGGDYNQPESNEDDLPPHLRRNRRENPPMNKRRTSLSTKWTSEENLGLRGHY

[9] = biological target: Genome polyprotein (dengue virus type 2, UniProt P29990); experiment: Dengue-2 NS5 methyltransferase inhibitors, primary screen, biochemical, confirmation dose response (AID 588689); type: functional
[10] = inhibitors of intracellular T. cruzi replication, confirmation, NIH3T3 host cells, beta-gal luminescence (AID 2044); type: functional, cell-based;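 also: intracellular parasites grown in NIH/3T3 mouse fibroblasts as host cells; luminescent beta-galactosidase reporter signal from transgenic T. cruzi replicating inside host cells; inhibitors lower the luminescence signal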
[11] = cytotoxicity toward NIH3T3 fibroblasts, dose response, counter-screen, cell-based, ATP luminescence, mouse fibroblasts (AID 2010); type: functional;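 also: cells exposed to compound for about 90 hours before reading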
[12] = biological target: T6, Fatty acid synthase (Homo sapiens, UniProt P49327); experiment: FAS thioesterase domain inhibitors, dose response, biochemical, endpoint fluorescence intensity, uHTS hits (AID 624327); type: functional;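 also: fluorescence from hydrolysis of an O-methyl fluorescein acyl ester substrate by the enzyme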
[13] = biological target: T6, Fatty acid synthase; experiment: FAS thioesterase domain inhibitors, dose response, biochemical, kinetic fluorescence intensity (AID 624326); type: functional;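 also: rate of fluorescence rise from hydrolysis of a fluorogenic O-methyl fluorescein ester substrate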
[14] = inhibitors of HIV Env-driven cell fusion, dose response, cherry-pick (AID 652057); type: functional, cell-based
[15] = off-target signal loss in HeLa-CEM21 co-culture – HeLa F-luc CTL cells, cherry-picked, counter-screen for HIV-1 Env fusion inhibitor project, dose response (AID 652040); type: functional, cell-based;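 also: potency for signal decrease marking cytotoxic or nonspecific inhibition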
[16] = inhibitors of clade B AD8 Env fusion, dose response, cell-based, cherry-pick (AID 652062); type: functional;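 also: luciferase signal from cell-cell fusion driven by HIV-1 clade B AD8 Env; potency is for inhibitors of fusion seen as a drop in luminescence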

T6 sequence (P49327 whole entry, the tested form may be a part): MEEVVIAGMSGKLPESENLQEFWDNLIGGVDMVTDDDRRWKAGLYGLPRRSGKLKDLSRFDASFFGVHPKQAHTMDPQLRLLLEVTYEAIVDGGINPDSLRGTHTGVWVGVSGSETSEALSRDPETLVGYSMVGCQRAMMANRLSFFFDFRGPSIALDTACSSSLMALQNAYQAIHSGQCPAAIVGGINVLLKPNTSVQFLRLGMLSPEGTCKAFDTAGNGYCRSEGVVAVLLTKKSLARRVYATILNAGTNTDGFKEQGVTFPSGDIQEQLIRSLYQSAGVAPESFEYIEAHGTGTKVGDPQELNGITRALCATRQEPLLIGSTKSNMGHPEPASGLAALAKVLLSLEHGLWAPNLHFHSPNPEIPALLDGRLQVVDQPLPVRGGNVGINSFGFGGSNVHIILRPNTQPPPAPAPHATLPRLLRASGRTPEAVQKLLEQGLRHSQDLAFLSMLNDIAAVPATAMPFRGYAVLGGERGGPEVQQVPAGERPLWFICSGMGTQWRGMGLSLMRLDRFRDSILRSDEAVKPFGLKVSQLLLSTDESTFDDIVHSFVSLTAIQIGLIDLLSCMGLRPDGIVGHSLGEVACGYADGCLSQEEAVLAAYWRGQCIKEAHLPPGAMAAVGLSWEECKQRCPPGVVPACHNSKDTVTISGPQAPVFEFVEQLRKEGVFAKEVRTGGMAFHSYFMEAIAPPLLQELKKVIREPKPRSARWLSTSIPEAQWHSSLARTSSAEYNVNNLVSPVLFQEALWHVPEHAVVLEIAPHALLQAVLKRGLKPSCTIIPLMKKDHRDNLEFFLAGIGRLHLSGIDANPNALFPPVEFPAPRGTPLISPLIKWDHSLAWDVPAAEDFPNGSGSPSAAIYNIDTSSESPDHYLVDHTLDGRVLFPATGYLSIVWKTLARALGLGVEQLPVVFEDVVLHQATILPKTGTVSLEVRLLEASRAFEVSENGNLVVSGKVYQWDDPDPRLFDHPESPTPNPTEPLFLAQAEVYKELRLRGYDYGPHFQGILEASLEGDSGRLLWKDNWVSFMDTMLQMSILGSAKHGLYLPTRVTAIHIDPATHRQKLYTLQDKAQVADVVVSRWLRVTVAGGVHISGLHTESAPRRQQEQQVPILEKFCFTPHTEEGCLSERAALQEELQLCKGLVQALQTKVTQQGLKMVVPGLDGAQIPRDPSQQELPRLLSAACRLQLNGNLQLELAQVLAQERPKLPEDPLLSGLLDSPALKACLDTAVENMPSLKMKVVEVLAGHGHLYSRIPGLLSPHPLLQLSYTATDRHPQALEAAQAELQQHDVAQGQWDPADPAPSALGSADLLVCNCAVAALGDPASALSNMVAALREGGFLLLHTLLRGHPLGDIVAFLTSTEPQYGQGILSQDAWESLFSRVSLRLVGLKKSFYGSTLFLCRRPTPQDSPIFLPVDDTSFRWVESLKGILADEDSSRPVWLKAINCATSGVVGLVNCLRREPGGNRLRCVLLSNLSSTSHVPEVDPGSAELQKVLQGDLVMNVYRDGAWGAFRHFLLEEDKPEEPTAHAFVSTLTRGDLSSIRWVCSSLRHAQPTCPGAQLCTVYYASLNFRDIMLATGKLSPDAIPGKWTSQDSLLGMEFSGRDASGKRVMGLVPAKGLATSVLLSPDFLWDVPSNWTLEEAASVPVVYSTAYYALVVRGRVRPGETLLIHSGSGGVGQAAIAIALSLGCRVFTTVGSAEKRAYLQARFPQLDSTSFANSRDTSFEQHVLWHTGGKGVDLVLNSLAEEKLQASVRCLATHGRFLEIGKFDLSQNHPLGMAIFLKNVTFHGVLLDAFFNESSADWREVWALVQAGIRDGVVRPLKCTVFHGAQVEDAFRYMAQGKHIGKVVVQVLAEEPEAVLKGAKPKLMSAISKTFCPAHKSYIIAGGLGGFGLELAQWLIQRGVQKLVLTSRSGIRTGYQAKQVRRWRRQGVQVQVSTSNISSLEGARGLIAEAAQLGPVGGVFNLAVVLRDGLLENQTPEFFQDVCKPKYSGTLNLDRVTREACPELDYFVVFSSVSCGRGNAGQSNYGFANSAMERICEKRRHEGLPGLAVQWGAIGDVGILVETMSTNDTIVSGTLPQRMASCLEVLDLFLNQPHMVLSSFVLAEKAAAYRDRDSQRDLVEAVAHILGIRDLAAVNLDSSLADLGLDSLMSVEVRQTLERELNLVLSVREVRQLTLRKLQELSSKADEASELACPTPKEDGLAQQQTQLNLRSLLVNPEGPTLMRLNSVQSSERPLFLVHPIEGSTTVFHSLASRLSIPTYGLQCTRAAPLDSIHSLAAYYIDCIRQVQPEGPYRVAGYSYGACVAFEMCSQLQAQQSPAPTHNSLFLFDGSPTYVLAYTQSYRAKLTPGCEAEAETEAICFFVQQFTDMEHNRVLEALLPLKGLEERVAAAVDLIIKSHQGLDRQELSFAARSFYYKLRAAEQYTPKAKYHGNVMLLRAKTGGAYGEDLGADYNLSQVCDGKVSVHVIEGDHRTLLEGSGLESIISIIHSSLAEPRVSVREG
Luciferin 4-monooxygenase, sequence (P08659 whole entry): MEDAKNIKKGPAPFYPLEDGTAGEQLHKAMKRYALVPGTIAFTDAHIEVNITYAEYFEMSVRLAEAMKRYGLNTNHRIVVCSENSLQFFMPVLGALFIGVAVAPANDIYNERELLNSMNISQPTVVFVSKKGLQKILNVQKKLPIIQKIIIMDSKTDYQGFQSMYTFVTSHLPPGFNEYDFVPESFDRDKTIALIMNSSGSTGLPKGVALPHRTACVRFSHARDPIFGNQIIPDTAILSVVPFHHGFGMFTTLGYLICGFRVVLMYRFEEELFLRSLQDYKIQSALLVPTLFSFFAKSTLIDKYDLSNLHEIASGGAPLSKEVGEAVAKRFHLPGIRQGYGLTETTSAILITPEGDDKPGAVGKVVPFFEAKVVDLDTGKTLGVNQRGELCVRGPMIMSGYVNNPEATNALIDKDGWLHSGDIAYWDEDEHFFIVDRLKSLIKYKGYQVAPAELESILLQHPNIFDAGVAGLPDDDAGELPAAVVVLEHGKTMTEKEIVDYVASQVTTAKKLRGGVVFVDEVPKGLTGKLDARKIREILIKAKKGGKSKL
Genome polyprotein, sequence (P29990 2492-3391 limits assumed): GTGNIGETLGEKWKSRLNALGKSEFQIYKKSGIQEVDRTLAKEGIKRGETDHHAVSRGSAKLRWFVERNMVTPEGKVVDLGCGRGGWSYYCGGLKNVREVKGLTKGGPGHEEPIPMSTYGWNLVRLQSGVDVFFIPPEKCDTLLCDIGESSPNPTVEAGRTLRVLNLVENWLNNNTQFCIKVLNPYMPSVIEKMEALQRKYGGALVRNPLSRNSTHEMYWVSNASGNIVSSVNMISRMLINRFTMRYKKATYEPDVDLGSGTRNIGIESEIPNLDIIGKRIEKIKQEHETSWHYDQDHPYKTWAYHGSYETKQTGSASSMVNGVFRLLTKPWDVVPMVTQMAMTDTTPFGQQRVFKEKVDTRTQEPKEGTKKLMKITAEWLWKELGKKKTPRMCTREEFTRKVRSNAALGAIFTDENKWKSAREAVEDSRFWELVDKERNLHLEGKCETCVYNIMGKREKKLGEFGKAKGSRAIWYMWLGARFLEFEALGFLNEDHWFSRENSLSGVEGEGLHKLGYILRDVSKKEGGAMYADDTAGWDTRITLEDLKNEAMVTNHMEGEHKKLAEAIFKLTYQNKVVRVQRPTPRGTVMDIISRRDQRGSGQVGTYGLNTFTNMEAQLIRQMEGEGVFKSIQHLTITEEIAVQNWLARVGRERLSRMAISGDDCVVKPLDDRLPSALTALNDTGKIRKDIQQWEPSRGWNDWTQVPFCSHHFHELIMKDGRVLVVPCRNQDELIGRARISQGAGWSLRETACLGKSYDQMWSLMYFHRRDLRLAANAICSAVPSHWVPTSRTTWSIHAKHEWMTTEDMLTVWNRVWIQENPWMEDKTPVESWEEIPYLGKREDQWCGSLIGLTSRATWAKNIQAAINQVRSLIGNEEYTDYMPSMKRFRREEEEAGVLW

For `COc1ccc(C2=Nn3c(nnc3-c3ccco3)SC2)cc1`, the IC50 [1] was 9.61 µM (not active).
For `C[C@H]1CN([C@@H](C)CO)C(=O)Cc2cc(NC(=O)C3CC3)ccc2O[C@@H]1CN(C)Cc1ccc(C(=O)Nc2ccccc2N)cc1`, the AC50 [2] was 3.59 µM (active).
For `CCOC(=O)C(=CN=C(N)Nc1nc2ccccc2o1)C(=O)OCC`, the IC50 [3] was 79.2 µM (active).
With `O=C(NCCc1ccccn1)C(F)(F)C(F)(F)C(F)(F)C(F)(F)C(F)(F)C(F)F` the EC50 [4] was > 112 µM (not active), the EC50 [5] was > 112 µM (not active) and the EC50 [6] was 4.73 µM (active).
In the case of `Cc1cc(/C=C2\C(=O)NC(=O)N(c3ccccc3)C2=O)c(C)n1-c1ccc(C(=O)O)c(Cl)c1`, the EC50 [7] is reported as > 300 µM (not active), the EC50 [8] is reported as > 300 µM (not active) and the IC50 [9] is reported as 63.7 µM (active).
For `Cn1c(NCc2ccco2)nc2c1c(=O)n(Cc1ccc(Cl)c(Cl)c1)c(=O)n2C`, the IC50 [1] was 4.09 µM (not active).
For `COc1ccc(C(=O)Nc2cc(C)ccc2NC(=O)COc2ccccc2)cc1`, the IC50 [1] was 1.51 µM (not active).
With `O=C(NC1CCCCC1)NC1CCN(C(=S)NCc2ccco2)CC1` the IC50 [3] was 66.3 µM (active).
For `COc1ccc(C(=O)N2c3cc4c(cc3C(C)=CC2(C)C)OCO4)cc1`, the IC50 [1] was 6.36 µM (not active).
With `C[C@@H]1CN([C@H](C)CO)C(=O)Cc2cc(NC(=O)Cc3ccccc3)ccc2O[C@@H]1CN(C)Cc1ccc(Cl)c(Cl)c1` the AC50 [2] was 2.51 µM (active).
With `COc1ccc(C(CNC(=O)c2cccc(Br)c2)N2CCCC2)cc1` (centres undefined) the EC50 [6] was 1.68 µM (active).
In the case of `O=C1c2ccc(Br)cc2C(=O)N1c1ccc(Cc2ccncc2)cc1`, the IC50 [1] is reported as 4.86 µM (not active).
With `C[C@H]1CN([C@@H](C)CO)C(=O)c2cccc(NC(=O)Nc3cccc4ccccc34)c2O[C@H]1CN(C)Cc1ccc(C(=O)Nc2ccccc2N)cc1` the AC50 [2] was 3.59 µM (active).
In the case of `CS(=O)(=O)N1CCc2cc(-c3csc(NC(=O)Cc4cccs4)n3)ccc21`, the EC50 [10] is reported as 586 nM (active), the EC50 [11] is reported as > 60 µM (not active) and the IC50 [12] is reported as 6.53 µM (active). The IC50 [13] was 9.27 µM (active), the AC50 [14] was 27.1 µM (active) and the AC50 [15] was 27.1 µM (active). For the same compound, the AC50 [16] was 9.65 µM (active).

— ChEMBL document CHEMBL1201862, “PubChem BioAssay data set” (2004)
